# According to US6248718A, “Lesion-directed dry dosage forms of antibacterial agents for the treatment of acute mucosal infections of the oral cavity” (priority 1999, dated 2001):
# Several values for one entry are separate records, joined by “and”; a condition that tells them apart may be missing. Identical values can stand only once.
# Columns and labels:
# [1] = Local concentrations of penicillin in saliva after topical medication of various doses (Example VII); format: in vivo, human; conditions: for Penicillin concentration in saliva / concentration at 0.1 h / concentration at 20 min / concentration at 40 min / concentration at 1 h / concentration at 2 h: studies 1-3; for concentration at 0.1 h / concentration at 20 min / concentration at 40 min / concentration at 1 h / concentration at 2 h: human, in vivo, topical or ocular; for concentration at 2 h: 120 min, after water at 60 min
# Description: Five healthy adult volunteers, three men and two women, were selected for this study. The same volunteers were used as the subjects for three studies, and the results are summarized as follows.
# On the day of study, two hours after breakfast, the volunteers were given a dose of 100 mg, 50 mg, 20 mg, 10 mg and 2 mg of USP grade penicillin G potassium powder respectively. The drug powder was placed in the right oral sulcus between the lower gum and the buccal mucosa to be dissolved in a minimum amount of saliva. This loculated pocket of saliva was not to be swallowed and was not to be further diluted by saliva from other parts of the mouth for one hour. At 6 minutes, 20 minutes, 40 minutes and 60 minutes after drug application, an aliquot of 0.01 ml was taken from this pocket of saliva and added into a test tube containing 10 ml of nutrient broth to give a 1,000 times dilution. After being mixed well, aliquots of the mixtures of saliva sample and nutrient broth were forced to pass through bacterial filters into sterile test tubes. Then 0.8 ml of each 1:1,000 diluted filtrate was pipetted and added to 3.2 ml of nutrient broth to make an additional 5 times dilution in a total volume of 4 ml. Two ml was pipetted from the latter to make a serial double dilution of saliva sample in 2 ml of nutrient broth, as described above under a, in 12 test tubes. The dilution factor for the saliva sample in test No. 1 was 1:5,000 and increased progressively to 1:10,240,000 in test tube No. 12.
# After the 60-minute sample was taken, the subjects were given an 8 oz. glass of water to drink or to rinse his or her mouth, but refrained from drinking and eating for another hour. At the end of this last hour, i.e. about 2 hours after the drug application, another saliva sample of 0.2 ml was withdrawn and added to 3.8 ml of nutrient broth to make a 1:20 dilution and the mixture was forced to pass a bacterial filter into a sterile test tube. Two (2 ) ml of the filtrate was pipetted from this 1:20 diluted mixture for antibiotic activity assays.
# Each filtered mixture in test tube was inoculated with 0.1 ml of a 1:1,000 dilution of a 12 hour broth culture of Staphylococcus aureus ATCC 29213.
# A row of 6 test tubes each containing 2 ml of nutrient broth with decreasing concentrations of penicillin G potassium from 6.2 to 0.16 mcg/ml, using a serial double dilution method described in a., was prepared and similarly inoculated with 0.1 ml broth culture of Staphylococcus aureus ATCC 29213 as the standard.
# All test tubes were incubated at 37° C. for 18 hours and observed for bacterial growth against an inoculated broth containing neither antibiotic nor saliva samples.
# The test tube of the highest number with the highest dilution factor of saliva in nutrient broth in which no bacterial growth was observed was interpreted as containing an equivalent of penicillin G potassium at 0.75 mcg/ml. Using the dilution factors, it was calculated that, after topical application of 2 to 100 mg of penicillin G potassium dry powder, the concentrations of penicillin G potassium in the saliva at the site of medication within the first hour and one hour after purging the mouth with water were as follows.
# [2] = Concentrations of penicillin G potassium in saliva after oral ingestion (Example VIII); format: in vivo, human; conditions: for concentration in human saliva: 30-min intervals to 3 hours
# Description: Eight healthy adults, four men and four women, volunteered for this study. Two men and two women were given 500 mg each, and two men and two women were given 250 mg of USP grade penicillin G potassium powder each by mouth, respectively. These two doses were chosen for the study because they have been used as the standard adult oral doses for systemic treatment of human bacterial infections.
# In this study, the drug powder was suspended in one teaspoonful of water and swallowed by the test subjects two hours after breakfast, followed by drinking an 8 Oz. glass of water. The test subjects refrained from drinking or eating for the next three hours. Six samples of saliva were collected from each subject at 30-minute intervals in succession in the next three hours. An aliquot of 0.2 ml from each saliva sample was transferred to 3.8 ml of nutrient broth. The mixture of the latter was forced to pass a bacterial filter. Two (2) ml of the bacteria-free filtrate was pipetted out into a sterile test tube and inoculated with 0.1 ml of a 1:1,000 dilution of a 12 hours broth culture of Staphylococcus aureus ATCC 29213 and incubated at 37° C. for 18 hours. A series of test tubes containing known concentrations, from 6.2 mcg/ml to 0.16 mcg/ml, of penicillin G potassium in 2 ml of nutrient broth was also inoculated with the same broth culture as standards.
# Since 0.75 mcg/ml is the consistent MIC observed in this laboratory for Staphylococcus aureus ATCC 29213, the penicillin concentration in the saliva-broth filtrate must have been at a level below 0.75 mcg/ml.
structure (smiles),measurement,setting,value
CC1(C)S[C@@H]2[C@H](NC(=O)Cc3ccccc3)C(=O)N2[C@H]1C(=O)O [penicillin G potassium],Penicillin concentration in saliva,"[1]; 2 mg topical powder, 20 min",below 3.75 mg/ml
same,Penicillin concentration in saliva,"[1]; 2 mg topical powder, 20 min, listed as Penicillin G Potassium",< 3.75 mg/mL
same,Penicillin concentration in saliva,"[1]; 2 mg topical powder, 40 min",< 3.75 mg/mL
same,Penicillin concentration in saliva,"[1]; 2 mg topical powder, 60 min",< 3.75 mg/mL
same,Penicillin concentration in saliva,"[1]; 10 mg topical powder, 6 min",60 mg/mL
same,Penicillin concentration in saliva,"[1]; 10 mg topical powder, 60 min",3.75 mg/mL and 7.5 mg/mL
same,Penicillin concentration in saliva,"[1]; 20 mg topical powder, 6 min",240 mg/mL and 120 mg/mL
same,Penicillin concentration in saliva,"[1]; 20 mg topical powder, 20 min",60 mg/mL
same,Penicillin concentration in saliva,"[1]; 20 mg topical powder, 60 min",7.5 mg/mL
same,Penicillin concentration in saliva,"[1]; 50 mg topical powder, 6 min",240 mg/mL and 480 mg/mL
same,Penicillin concentration in saliva,"[1]; 50 mg topical powder, 20 min",120 mg/mL and 240 mg/mL
same,Penicillin concentration in saliva,"[1]; 50 mg topical powder, 60 min",7.5 mg/mL
same,Penicillin concentration in saliva,"[1]; 100 mg topical powder, 6 min",480 mg/mL
same,Penicillin concentration in saliva,"[1]; 100 mg topical powder, 20 min",240 mg/mL and 120 mg/mL
same,Penicillin concentration in saliva,"[1]; 100 mg topical powder, 40 min",60 mg/mL
same,Penicillin concentration in saliva,"[1]; 100 mg topical powder, 60 min",30 mg/mL and 15 mg/mL
same,initial peak concentrations at the site of medication,[1]; doses of 2 mg to 100 mg powder,7.5 to 960 mg/mL
same,dose required to maintain minimum 3.75 mg/ml in saliva for one hour,[1]; dry powder,at least 10 mg
same,concentration at 0.1 h,"[1]; 2 mg topical powder, 6 min",15000 µg/mL
same,concentration at 20 min,"[1]; 2 mg topical powder, 20 min",7500 µg/mL
same,concentration at 40 min,"[1]; 2 mg topical powder, 40 min",3750 µg/mL
same,concentration at 1 h,"[1]; 2 mg topical powder, 60 min",< 3750 µg/mL
same,concentration at 2 h,[1]; 2 mg topical powder,< 15 µg/mL
same,concentration at 0.1 h,"[1]; 10 mg topical powder, 6 min",60000 µg/mL
same,concentration at 20 min,"[1]; 10 mg topical powder, 20 min",30000 µg/mL
same,concentration at 40 min,"[1]; 10 mg topical powder, 40 min",15000 µg/mL
same,concentration at 1 h,"[1]; 10 mg topical powder, 60 min",3750 µg/mL
same,concentration at 2 h,[1]; 10 mg topical powder,< 15 µg/mL
same,concentration at 0.1 h,"[1]; 20 mg topical powder, 6 min",120000 µg/mL
same,concentration at 20 min,"[1]; 20 mg topical powder, 20 min",60000 µg/mL
same,concentration at 40 min,"[1]; 20 mg topical powder, 40 min",7500 µg/mL
same,concentration at 1 h,"[1]; 20 mg topical powder, 60 min",7500 µg/mL
same,concentration at 2 h,[1]; 20 mg topical powder,< 15 µg/mL
same,concentration at 0.1 h,"[1]; 50 mg topical powder, 6 min",480000 µg/mL
same,concentration at 20 min,"[1]; 50 mg topical powder, 20 min",240000 µg/mL
same,concentration at 40 min,"[1]; 50 mg topical powder, 40 min",30000 µg/mL
same,concentration at 1 h,"[1]; 50 mg topical powder, 60 min",7500 µg/mL
same,concentration at 2 h,[1]; 50 mg topical powder,< 15 µg/mL
same,concentration at 0.1 h,"[1]; 100 mg topical powder, 6 min",960000 µg/mL
same,concentration at 20 min,"[1]; 100 mg topical powder, 20 min",240000 µg/mL
same,concentration at 40 min,"[1]; 100 mg topical powder, 40 min",30000 µg/mL
same,concentration at 1 h,"[1]; 100 mg topical powder, 60 min",15000 µg/mL
same,concentration at 2 h,[1]; 100 mg topical powder,< 15 µg/mL
same,concentration in saliva after drinking,"[1]; one hour after 8 oz. of fluid, all doses",< 15 µg/mL
same,concentration in human saliva,[2]; oral ingestion of 250 mg,< 15 µg/mL
same,concentration in human saliva,[2]; oral ingestion of 500 mg,< 15 µg/mL
same,bacterial growth in saliva-broth filtrate,"[2]; oral ingestion of 250 or 500 mg, S. aureus ATCC 29213, 48 tubes",vigorous bacterial growth
